Reference: patent publication US20080292576A1, “METHOD FOR IDENTIFYING HAIR CONDITIONER-RESISTANT HAIR-BINDING PEPTIDES AND HAIR BENEFIT AGENTS THEREFROM” (E.I. du Pont de Nemours and Co., priority 2005, published 2008)
Where no end group is shown, it is not given here. 5‑FAM = 5-carboxyfluorescein-aminohexyl amidite fluorescent tag

Tests used:
[1] = ELISA determination of specificity, binding to hair; parameters: species or system human; settings: for Hair A450 ± SEM: ELISA, 20 μM fluorescein-labeled peptide in binding buffer, 30 min at 37° C., absorbance at 450 nm; for binding to hair (in words): ELISA of Table 2
Excerpt: (§1) The hair-binding peptides HCP.1 (SEQ ID NO:1) and HCP.6 (SEQ ID NO:4) were used in this Example along with a control peptide, an unrelated skin-binding peptide, Skin 1 (Huang et al., U.S. Patent Application Publication No. 2005/0050656), given as SEQ ID NO:8. All of the peptides were synthesized with an added lysine residue, derivatized with the fluorescent tag 5-carboxyfluorescein-aminohexyl amidite (5-FAM), at the C-terminus by SynPep (Dublin, Calif.). The sequences of the derivatized hair binding peptides HCP.1(5-FAM) and HCP.6(5-FAM) are given as SEQ ID NOs:9 and 10, respectively. The sequence of the derivatized skin-binding peptide control Skin 1(5-FAM) is given as SEQ ID NO:11.
(§2) For the assay, a unique hair or pig skin-bottom 96-well apparatus was created by applying one layer of Parafilm® under the top 96-well block of a Minifold I Dot-Blot System (Schleicher & Schuell, Inc., Keene, N.H.), adding hair or a layer of hairless pig skin on top of the Parafilm® cover, and then tightening the apparatus. The hair or skin sample in the 96-well apparatus was first blocked with SuperBlock® Blocking Buffer (Tris-buffered; Pierce Biotechnology, Rockford, Ill.) by incubating the sample for 1 h at room temperature. Then, the hair or skin sample was washed six times with wash buffer (TBST-0.5%). The fluorescein-labeled peptide, at a concentration of 20 μM in 1.0 mL of binding buffer (TBST-0.5% containing 1 mg/mL BSA), was added to each well and incubated for 30 min at 37° C. The hair or skin sample was washed six times with TBST-0.5%, and then, 1.0 mL of anti-fluorescein/Mouse IgG (Molecular Probes, Inc., Eugene, Oreg.) solution (1:1000 dilution in blocking buffer) was added per well. The samples were incubated for 1 h at room temperature and then washed six times with wash buffer. Then, 1.0 mL of Anti-Mouse IgG-HRP conjugate (Pierce Biotechnology) solution (1:1000 dilution in blocking buffer) was added to each well and the samples were incubated for 1 h at room temperature. The samples were washed six times with wash buffer, and 300 μL of TMB Substrate (Pierce Biotechnology) was added to each well. The samples were incubated for 10 min at room temperature and then a 100 μL sample from each well was taken and added to a well in a new microtiter plate. Then, 100 μL of Stop solution (2 M sulfuric acid solution) was added to each well and the absorbance of each sample was measured at a wavelength of 450 nm.

[2] = ELISA determination of specificity, binding to pig skin; settings: for Skin A450 ± SEM: ELISA, 20 μM fluorescein-labeled peptide in binding buffer, 30 min at 37° C., pig skin, absorbance at 450 nm; for binding to skin (in words): ELISA of Table 2, pig skin
Excerpt: as §1, §2

[3] = ELISA binding to hair bundles from a hair conditioner matrix or buffer; parameters: species or system human; settings: for Buffer A450 ± SEM / 100% Conditioner A450 ± SEM: hair bundles, 30 min at 37° C.; for Buffer A450 ± SEM: 20 μM peptide in buffer; for 100% Conditioner A450 ± SEM: 20 μM peptide in undiluted Dove Extra Volume Conditioner; for difference in hair-binding activity from a hair conditioner matrix compared to buffer: ELISA of Table 3
Description: The same ELISA method described in Example 4 was used, except that the hair samples were assembled into bundles, instead of being cast as wells in a 96-well apparatus. To prepare the hair sample bundles, 100 pieces of 1 cm-long hairs were assembled together and taped at one end with narrow tape (3 M, St. Paul, Minn.). The hair was prepared as described in Examples 1-3 and placed into a flat-bottom block (Qiagen Science, Germantown, Md.; Cat. No. 19579).
The HCP.1(5-FAM) and HCP.6(5-FAM) hair-binding peptides, as described in Example 4, were mixed separately with undiluted hair conditioner (Dove® Extra Volume Conditioner; Unilever) using a high-shear mixer (Silverson, Model L4R7A; Silverson Machines, East Longmeadow, Mass.) for 6 min to give a final peptide concentration of 20 μM. The hair samples were blocked as described in Example 4 and then incubated in the peptide-conditioner mixtures for 30 min at 37° C. The hair samples were then washed and treated as described in Example 4. After the final wash step after the addition of the Anti-Mouse IgG-HRP conjugate, the hair bundles were transferred to new tubes and the TMB substrate was added. The hair bundles were incubated for 10 min at room temperature, and then a 100 μL sample from each tube was taken and added to a well in a microtiter plate. Then, 100 μL of Stop solution (2 M sulfuric acid solution) was added to each well and the absorbance of each sample was measured at a wavelength of 450 nm.
The binding of the HCP.1(5-FAM) and HCP.6(5-FAM) hair-binding peptides to hair from buffer was determined using the same procedure. In addition, controls were run using the same procedure, without any hair-binding peptide present, in both hair conditioner and buffer.

[4] = Shampoo resistance of hair binding (ELISA after 30% shampoo wash); parameters: species or system human; settings: wash with 30% shampoo (Pantene Pro-V, Sheer Volume)
Description: Experiments were also done to determine if the hair conditioner-resistant hair-binding peptides were also shampoo resistant. For these experiments, the hair, after contacting with the hair-binding peptide (HCP.1 or HCP.6), was washed with a solution containing 30% shampoo (Pantene Pro-V, Sheer Volume, Proctor & Gamble, Cincinnati, Ohio) and the binding activity was determined using the ELISA method described above and compared to that obtained with buffer washes.

[5] = Stability of hair-binding activity in a hair conditioner matrix (ELISA over time); parameters: species or system human; settings: 21 days in hair conditioner matrix, room temperature; FIGS. 1 and 2
Description: Separate mixtures of the hair-binding peptides HCP.1 and HCP.6 in hair conditioner were prepared as described in Example 5. For purposes of comparison, solutions of the hair-binding peptides in buffer were used. All the solutions were stored at room temperature and the binding activity of the peptides was determined using the ELISA procedure described in Example 5 using samples taken at different periods of time.

HCP.1(5-FAM): HCP.1 with an added C-terminal lysine derivatized with fluorescent tag 5-carboxyfluorescein-aminohexyl amidite (THSTHNHGSPRHTNADAGNPK(5‑FAM))
Hair A450 ± SEM [1]: 0.392 ± 0.065 | Skin A450 ± SEM [2]: 0.090 ± 0.136 | Buffer A450 ± SEM [3]: 1.593 ± 0.060 | 100% Conditioner A450 ± SEM [3]: 1.581 ± 0.046

HCP.6(5-FAM): HCP.6 with an added C-terminal lysine derivatized with fluorescent tag 5-carboxyfluorescein-aminohexyl amidite (STLHKYKSQDPTPHHK(5‑FAM))
Hair A450 ± SEM [1]: 0.581 ± 0.053 | Skin A450 ± SEM [2]: −0.009 ± 0.023 | Buffer A450 ± SEM [3]: 1.420 ± 0.062 | 100% Conditioner A450 ± SEM [3]: 1.217 ± 0.075

STLHKYKSQDPTPHH (Hair conditioner-resistant hair-binding peptide) [HCP.6]
binding to hair (in words) [1]: bind to hair | binding to skin (in words) [2]: not to skin | difference in hair-binding activity from a hair conditioner matrix compared to buffer [3]: no significant difference | binding activity after shampoo wash compared to buffer washes [4]: almost total loss of binding activity | hair-binding activity after storage in the hair conditioner matrix [5]: no significant decrease

Skin 1(5-FAM): skin-binding control peptide Skin 1 with added C-terminal lysine derivatized with 5-FAM (TPFHSPENAPGSK(5‑FAM)) [reference compound]
Hair A450 ± SEM [1]: −0.001 ± 0.041 | Skin A450 ± SEM [2]: 0.328 ± 0.146

Skin 1: control peptide, an unrelated skin-binding peptide (Huang et al., US 2005/0050656) (TPFHSPENAPGS; Skin-binding peptide) [reference compound]
binding to hair (in words) [1]: low hair-binding activity | binding to skin (in words) [2]: high skin-binding activity

THSTHNHGSPRHTNADAGNP (Hair conditioner-resistant hair-binding peptide) [HCP.1]
binding to hair (in words) [1]: bind to hair | binding to skin (in words) [2]: not to skin | difference in hair-binding activity from a hair conditioner matrix compared to buffer [3]: no significant difference | binding activity after shampoo wash compared to buffer washes [4]: almost total loss of binding activity | hair-binding activity after storage in the hair conditioner matrix [5]: no significant decrease
